Where two headings read alike, the source gives them in different places. Blank lines part the entries; values can stand above or below the molecule they belong to. Where a SMILES comes first, the peptide text is derived from it. [ ]: non-standard residue; d: D form. GlyMeDOTA = DOTA chelator on the lysine side chain; Tpi = O=C(O)[C@@H]1Cc2c([nH]c3ccccc23)CN1; βAla(cyclopropyl) = beta-Ala(cyclopropyl); Dip = N[C@H](C(=O)O)C(c1ccccc1)c1ccccc1; Phe(4-F) = N[C@@H](Cc1ccc(F)cc1)C(=O)O; 1Nal = N[C@@H](Cc1cccc2ccccc12)C(=O)O; 2Nal = N[C@@H](Cc1ccc2ccccc2c1)C(=O)O; NMeF = CN[C@@H](Cc1ccccc1)C(=O)O; 4Pal = N[C@@H](Cc1ccncc1)C(=O)O; NMehCys = CN[C@@H](CCS)C(=O)O; Thz = O=C(O)[C@@H]1CSCN1; Dap = NC[C@H](N)C(=O)O
What was measured:
[1] = target: SSTR5 (Homo sapiens, UniProt P35346); assay: Radioligand binding assay on membranes of CHO-K1 cells expressing SSTR5; conditions: for IC50: membranes from CHO-K1 cells stably expressing cloned somatostatin receptor 5; for Ratio 2/5 in %: ratio of IC50 SSTR2 / IC50 SSTR5 in %
Chain of SSTR5 (P35346 whole entry): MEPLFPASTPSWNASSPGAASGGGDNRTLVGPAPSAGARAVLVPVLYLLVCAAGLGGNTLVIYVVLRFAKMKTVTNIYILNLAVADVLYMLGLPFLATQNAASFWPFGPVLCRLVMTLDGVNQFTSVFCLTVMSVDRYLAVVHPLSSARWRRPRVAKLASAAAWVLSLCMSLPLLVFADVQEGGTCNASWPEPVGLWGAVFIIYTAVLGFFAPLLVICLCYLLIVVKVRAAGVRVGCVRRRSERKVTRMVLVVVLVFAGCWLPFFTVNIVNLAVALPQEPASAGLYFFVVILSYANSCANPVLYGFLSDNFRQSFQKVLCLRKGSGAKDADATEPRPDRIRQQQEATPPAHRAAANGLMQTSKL
Experimental: (§1) Radiolabeling binding assays were carried out as described in the prior art like, e.g. in Gazal S. et al (2002) J. Med. Chem. 45: 1665-1671. The radioligand binding assays were carried out on membranes prepared from CHO-K1 cells stably expressing individually cloned somatostatin receptors 2 or 5 (SSTR2 or SSTR5). Cells were grown for 2 days for almost confluence and were washed and scraped into 50 mM ice-cold Tris-HCl, pH 7.8, containing 1 mM EGTA, 5 mM MgCl2, […], 0.1 mM PMSF, and 0.5 mg/mL aprotinin (buffer A) and were centrifuged at 10,000 rpm for 10 min at 4° C. (in Sorvall RC 26 Plus ultracentrifuge, rotor SS-34). The pellet was resuspended in buffer A and homogenized with a Polytron PT 1200 homogenizer (Kinematica AG, Switzerland) (setting 2, 3 strokes 10 s each). The homogenate was then centrifuged at 20 000 rpm for 20 min at 4° C. The pellet was resuspended in buffer A and homogenized using the Polytron homogenizer (setting 2, 3 strokes 5 s each). The protein content was determined by Bradford, and the membrane preparation was diluted in buffer A containing 1 mg/mL bovine serum albumin (BSA) to a final 0.2 or 0.4 mg/mL membrane protein (depending on the specific somatostatin receptor used).
(§2) The radioligand binding assay was performed in 96 well microtiter plates (Maxisorp plates, Nunc, Denmark). Cell membranes ([…] protein) were incubated with the various cyclized peptides indicated in Table 1 & 2, which comprised a lanthanide chelation unit, in a final volume of 250 μL, for 45 min. at room temperature in the presence or absence of competing peptides. Nonspecific binding was defined as the radioactivity remaining bound in the presence of […] somatostatin. At the end of the binding, reaction free radioligand was separated from bound Ligand by rapid filtration through UniFilter GF/C plates preincubated in a solution of 5 g/L polyethyleneimine and 1 g/L BSA. The filtration was performed in Filter-Mate Cell Harvester (Packard Instrument Company, U.S.A.). After filtration, the filters were washed several times with cold buffer A containing 1 mg/mL BSA and allowed to dry overnight at room temperature. Then, bound radioactivity was counted. The binding assays were performed in triplicate wells. Data from radioligand binding were used to generate inhibition curves, and IC50 values were determined for each of the tested peptides. The saturation binding data were analyzed by the method of Scatchard, and IC50 values are expressed as mean±SEM (standard error of the mean).

[2] = target: SSTR2 (Homo sapiens, UniProt P30874); assay: Radioligand binding assay on membranes of CHO-K1 cells expressing SSTR2; conditions: membranes from CHO-K1 cells stably expressing cloned somatostatin receptor 2
Chain of SSTR2 (P30874 whole entry): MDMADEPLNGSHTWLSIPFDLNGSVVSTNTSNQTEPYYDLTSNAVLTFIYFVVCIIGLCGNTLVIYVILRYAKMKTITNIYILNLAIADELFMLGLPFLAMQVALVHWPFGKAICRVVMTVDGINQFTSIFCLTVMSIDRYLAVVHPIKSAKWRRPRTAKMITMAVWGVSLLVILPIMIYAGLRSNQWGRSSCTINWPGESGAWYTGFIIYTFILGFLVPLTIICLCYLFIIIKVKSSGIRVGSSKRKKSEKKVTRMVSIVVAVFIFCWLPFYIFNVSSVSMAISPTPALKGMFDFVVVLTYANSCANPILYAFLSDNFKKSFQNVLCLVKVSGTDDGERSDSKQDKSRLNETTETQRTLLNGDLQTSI
Experimental: as §1, §2

[3] = target: T1, somatostatin receptor 5 (UniProt P35346 1-364, limits assumed); assay: ratio of IC50 on SSTR2 to IC50 on SSTR5 (reference SSTR2), radioligand competition binding on CHO-K1 membranes
T1 construct: whole, on cells; Assayed as membrane preparation of CHO-K1 cells stably expressing the cloned receptor; also called SSTR5; somatostatin receptor subtype 5
T1 sequence (P35346 whole entry): as the sequence (P35346 whole entry) above

[4] = target: T1, somatostatin receptor 5; assay: radioligand competition binding, membranes of CHO-K1 cells expressing SSTR5
[5] = target: T1, somatostatin receptor 5; assay: ratio of IC50 on SSTR2 to IC50 on SSTR5 (reference SSTR2), radioligand competition binding on CHO-K1 membranes; remark: listed apart in the source
[6] = target: T2, somatostatin receptor 2 (UniProt P30874 1-369, limits assumed); assay: radioligand competition binding, membranes of CHO-K1 cells expressing SSTR2
T2 construct: whole, on cells; Assayed as membrane preparation of CHO-K1 cells stably expressing the cloned receptor; also called SSTR2; somatostatin receptor subtype 2
T2 sequence (P30874 whole entry): as the sequence (P30874 whole entry) above

B1: P1839 (peptide)
peptide: cyclo(Y[dW]KTF[NMehCys])
SMILES: C[C@@H](O)[C@@H]1NC(=O)[C@H](CCCCN)NC(=O)[C@@H](Cc2c[nH]c3ccccc23)NC(=O)[C@H](Cc2ccc(O)cc2)NC(=O)[C@H](CCS)N(C)C(=O)[C@H](Cc2ccccc2)NC1=O
notes: Known somatostatin analogue tested as comparison; also called cyclo[Tyr-DTrp-Lys-Thr-Phe-(NMe)hCys]
- Ratio 2/5 in % [3]: 0.15%

B2: P2323 (peptide)
peptide: cyclo([1Nal][dW]KTK(GlyMeDOTA)[NMeF])
notes: Cyclic hexapeptide carrying a DOTA chelator on Lys 5; also called cyclo[1Nal-DTrp-Lys-Thr-Lys(GlyMeDOTA)-(N-Me)Phe]
- IC50 [4]: 9.37 nM
- Ratio 2/5 in % [5]: 399%
- IC50 [6]: 37.4 nM

B3: P2300 (peptide)
peptide: cyclo(Y[dW]K[βAla(cyclopropyl)]M[NMeF])
notes: Cyclic hexapeptide; also called cyclo[Tyr-DTrp-Lys-BAla(cyclopropyl)-Met-(N-Me)Phe]
- IC50 [4]: 20.7 nM
- Ratio 2/5 in % [5]: 0.96%
- IC50 [6]: 0.198 nM

B4: P2267 (peptide)
peptide: cyclo(Y[dW]K[Dap]M[NMeF])
SMILES: CSCC[C@@H]1NC(=O)[C@H](CN)NC(=O)[C@H](CCCCN)NC(=O)[C@@H](Cc2c[nH]c3ccccc23)NC(=O)[C@H](Cc2ccc(O)cc2)NC(=O)[C@H](Cc2ccccc2)N(C)C1=O
notes: Cyclic hexapeptide; also called cyclo[Tyr-DTrp-Lys-Dpr-Met-(NMe)Phe]
- IC50 [4]: 25.9 nM
- Ratio 2/5 in % [5]: 1.9%
- IC50 [6]: 0.501 nM

B5: P2281 (peptide)
peptide: cyclo([4Pal][dW]KTM[NMeF])
SMILES: CSCC[C@@H]1NC(=O)[C@H]([C@@H](C)O)NC(=O)[C@H](CCCCN)NC(=O)[C@@H](Cc2c[nH]c3ccccc23)NC(=O)[C@H](Cc2ccncc2)NC(=O)[C@H](Cc2ccccc2)N(C)C1=O
notes: Cyclic hexapeptide; also called cyclo[(4)Pal-DTrp-Lys-Thr-Met-(NMe)Phe]
- Ratio 2/5 in % [5]: 0.36%

B6: P2269 (peptide)
peptide: cyclo(W[dW]KTM[NMeF])
SMILES: CSCC[C@@H]1NC(=O)[C@H]([C@@H](C)O)NC(=O)[C@H](CCCCN)NC(=O)[C@@H](Cc2c[nH]c3ccccc23)NC(=O)[C@H](Cc2c[nH]c3ccccc23)NC(=O)[C@H](Cc2ccccc2)N(C)C1=O
notes: also called cyclo[Trp-DTrp-Lys-Thr-Met-(NMe)Phe]
- IC50 [4]: 3.27 nM
- Ratio 2/5 in % [5]: 15.3%
- IC50 [6]: 0.501 nM

B7: P2279 (peptide)
peptide: cyclo([2Nal][dW]KTM[NMeF])
SMILES: CSCC[C@@H]1NC(=O)[C@H]([C@@H](C)O)NC(=O)[C@H](CCCCN)NC(=O)[C@@H](Cc2c[nH]c3ccccc23)NC(=O)[C@H](Cc2ccc3ccccc3c2)NC(=O)[C@H](Cc2ccccc2)N(C)C1=O
notes: Cyclic hexapeptide; also called cyclo[2Nal-Dtrp-Lys-Thr-Met-(N-Me)Phe]
- Ratio 2/5 in % [5]: 37.2%

B8: P2274 (peptide)
peptide: cyclo(Y[dW]KTM[Tpi])
SMILES: CSCC[C@@H]1NC(=O)[C@H]([C@@H](C)O)NC(=O)[C@H](CCCCN)NC(=O)[C@@H](Cc2c[nH]c3ccccc23)NC(=O)[C@H](Cc2ccc(O)cc2)NC(=O)[C@@H]2Cc3c([nH]c4ccccc34)CN2C1=O
notes: Cyclic hexapeptide; also called cyclo[Tyr-DTrp-Lys-Thr-Met-Tpi]
- IC50 [4]: 19.9 nM
- Ratio 2/5 in % [5]: 6.1%
- IC50 [6]: 1.22 nM

Further lines, results first:

- IC50 [1]: 34.5 nM
- Ratio 2/5 in % [1]: 37.1%
- IC50 [2]: 12.8 nM
Molecule: CSCC[C@@H]1NC(=O)[C@H]([C@@H](C)O)NC(=O)[C@H](CCCCN)NC(=O)[C@@H](Cc2c[nH]c3ccccc23)NC(=O)[C@@H]2CSCN2C(=O)[C@H](Cc2ccccc2)NC1=O [P2297, cyclo[ThioPro-DTrp-Lys-Thr-Met-Phe]] (cyclo([Thz][dW]KTMF))

- IC50 [1]: 11.6 nM
- Ratio 2/5 in % [1]: 1.2%
- IC50 [2]: 0.139 nM
Molecule: CSCC[C@@H]1NC(=O)[C@H]([C@@H](C)O)NC(=O)[C@H](CCCCN)NC(=O)[C@@H](Cc2c[nH]c3ccccc23)NC(=O)[C@H](Cc2ccc(O)cc2)NC(=O)[C@H](Cc2ccccc2)N(C)C1=O [P2265, cyclo[Tyr-DTrp-Lys-Thr-Met-(NMe)Phe]] (cyclo(Y[dW]KTM[NMeF]))

- IC50 [1]: 4.17 nM
- Ratio 2/5 in % [1]: 10.5%
- IC50 [2]: 0.437 nM
Molecule: CSCC[C@@H]1NC(=O)[C@H](C(C)C)NC(=O)[C@H](CCCCN)NC(=O)[C@@H](Cc2c[nH]c3ccccc23)NC(=O)[C@H](Cc2cccc3ccccc23)NC(=O)[C@H](Cc2ccccc2)N(C)C1=O [P2329, cyclo[1Nal-DTrp-Lys-Val-Met-(N-Me)Phe]] (cyclo([1Nal][dW]KVM[NMeF]))

- IC50 [1]: 1.59 nM
- Ratio 2/5 in % [1]: 27.9%
- IC50 [2]: 0.444 nM
Molecule: CSCC[C@@H]1NC(=O)[C@H]([C@@H](C)O)NC(=O)[C@H](CCCCN)NC(=O)[C@@H](Cc2c[nH]c3ccccc23)NC(=O)[C@H](Cc2cccc3ccccc23)NC(=O)[C@H](Cc2ccccc2)N(C)C1=O [P2278, cyclo[(1)Nal-DTrp-Lys-Thr-Met-(NMe)Phe]] (cyclo([1Nal][dW]KTM[NMeF]))

- IC50 [1]: 8.12 nM
- Ratio 2/5 in % [1]: 3.2%
- IC50 [2]: 0.256 nM
Molecule: CSCC[C@@H]1NC(=O)[C@H](C(C)C)NC(=O)[C@H](CCCCN)NC(=O)[C@@H](Cc2c[nH]c3ccccc23)NC(=O)[C@H](Cc2ccc(O)cc2)NC(=O)[C@H](Cc2ccccc2)N(C)C1=O [P2266, cyclo[Tyr-DTrp-Lys-Val-Met-(NMe)Phe]] (cyclo(Y[dW]KVM[NMeF]))

- IC50 [1]: 15 nM
- Ratio 2/5 in % [1]: 37.2%
- IC50 [2]: 5.58 nM
Molecule: CSCC[C@@H]1NC(=O)[C@H]([C@@H](C)O)NC(=O)[C@H](CCCCN)NC(=O)[C@@H](Cc2c[nH]c3ccccc23)NC(=O)[C@H](Cc2ccc3ccccc3c2)NC(=O)[C@H](Cc2ccccc2)N(C)C1=O [P2279, cyclo[2Nal-Dtrp-Lys-Thr-Met-(N-Me)Phe]] (cyclo([2Nal][dW]KTM[NMeF]))

- IC50 [1]: 42.2 nM
- Ratio 2/5 in % [1]: 0.42%
- IC50 [2]: 0.177 nM
Molecule: CSCC[C@@H]1NC(=O)[C@H]([C@@H](C)O)NC(=O)[C@H](CCCCN)NC(=O)[C@@H](Cc2c[nH]c3ccccc23)NC(=O)[C@H](C(c2ccccc2)c2ccccc2)NC(=O)[C@H](Cc2ccccc2)N(C)C1=O [P2326, cyclo[DiphenylAla-DTrp-Lys-Thr-Met-(N-Me)Phe]] (cyclo([Dip][dW]KTM[NMeF]))

- IC50 [1]: 22 nM
- Ratio 2/5 in % [1]: 0.15%
- IC50 [2]: 0.032 nM
Molecule: C[C@@H](O)[C@@H]1NC(=O)[C@H](CCCCN)NC(=O)[C@@H](Cc2c[nH]c3ccccc23)NC(=O)[C@H](Cc2ccc(O)cc2)NC(=O)[C@H](CCS)N(C)C(=O)[C@H](Cc2ccccc2)NC1=O [P1839, cyclo[Tyr-DTrp-Lys-Thr-Phe-(NMe)hCys], reference compound]

- IC50 [1]: 43.3 nM
- Ratio 2/5 in % [1]: 0.36%
- IC50 [2]: 0.154 nM
Molecule: CSCC[C@@H]1NC(=O)[C@H]([C@@H](C)O)NC(=O)[C@H](CCCCN)NC(=O)[C@@H](Cc2c[nH]c3ccccc23)NC(=O)[C@H](Cc2ccncc2)NC(=O)[C@H](Cc2ccccc2)N(C)C1=O [P2281, cyclo[(4)Pal-DTrp-Lys-Thr-Met-(NMe)Phe]] (cyclo([4Pal][dW]KTM[NMeF]))

- IC50 [1]: 7.61 nM
- Ratio 2/5 in % [1]: 2.0%
- IC50 [2]: 0.152 nM
Molecule: CSCC[C@@H]1NC(=O)[C@H]([C@@H](C)O)NC(=O)[C@H](CCCCN)NC(=O)[C@@H](Cc2c[nH]c3ccccc23)NC(=O)[C@H](Cc2ccc(F)cc2)NC(=O)[C@H](Cc2ccccc2)N(C)C1=O [P2292, cyclo[Phe(4-F)-DTrp-Lys-Thr-Met-(N-Me)Phe]] (cyclo([Phe(4-F)][dW]KTM[NMeF]))
